From PubChem BioAssay (NCI)
Where “and” joins values, the source holds several entries; their conditions need not be identical. Equal values may be shown once.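 Following 48 hours of exposure in 96-well plates, responses at five concentrations were used to interpolate endpoints linearly. The concentration for 50% growth inhibition is given as GI50. At the TGI there is no net growth.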

Legend:
Assay in all cases: growth of human tumour cells (NCI), 48 h
M14 melanoma = test system: M14 melanoma
A549 NSCLC = test system: A549 NSCLC
SNB-19 CNS = test system: SNB-19 CNS
NCI-H460 lung = test system: NCI-H460 lung
SK-MEL-5 melanoma = test system: SK-MEL-5 melanoma
OVCAR-8 ovarian = test system: OVCAR-8 ovarian
RXF 393 renal = test system: RXF 393 renal
IGROV1 ovarian = test system: IGROV1 ovarian
BT-549 breast = test system: BT-549 breast
PC-3 prostate = test system: PC-3 prostate

| SMILES | TGI (M14 melanoma) [µM] | TGI (A549 NSCLC) [µM] | TGI (SNB-19 CNS) [µM] | TGI (NCI-H460 lung) [µM] | TGI (SK-MEL-5 melanoma) [µM] | TGI (OVCAR-8 ovarian) | TGI (RXF 393 renal) [µM] | TGI (IGROV1 ovarian) [µM] | GI50 (M14 melanoma) [µM] | GI50 (A549 NSCLC) [µM] | GI50 (SNB-19 CNS) [µM] | GI50 (NCI-H460 lung) [µM] | GI50 (BT-549 breast) [µM] | TGI (BT-549 breast) [µM] | GI50 (PC-3 prostate) [µM] | TGI (PC-3 prostate) [µM] | GI50 (SK-MEL-5 melanoma) [µM] | GI50 (OVCAR-8 ovarian) [µM] | GI50 (IGROV1 ovarian) | GI50 (RXF 393 renal) [µM] |
| --- | --- | --- | --- | --- | --- | --- | --- | --- | --- | --- | --- | --- | --- | --- | --- | --- | --- | --- | --- | --- |
| Cc1ccc(S(=O)(=O)N[C@H](C(=O)O)c2ccccc2)cc1 | > 100 | > 100 | > 100 | > 100 | > 100 | > 100 µM | > 100 | > 100 | – | – | – | – | – | – | – | – | – | – | – | – |
| Cc1cn(Cc2ccccc2CCO)c(=S)[nH]c1=O | > 100 | > 100 | > 100 | > 100 | > 100 | > 100 µM | > 100 | > 100 | – | – | – | – | – | – | – | – | – | – | – | – |
| CC(C)(C)OC1=C(OC(C)(C)C)C(O)(c2ccccc2)C1=O (stereo not given) | > 100 | > 100 | > 100 | > 100 | > 100 | > 100 µM | > 100 | > 100 | – | – | – | – | – | – | – | – | – | – | – | – |
| N#Cc1ccccc1NC(=O)/C(=N\N)C(C(=O)c1ccncc1)C1OC(=O)c2ccccc21 (stereo not given) | > 100 | > 100 | > 100 | > 100 | > 100 | > 100 µM | – | > 100 | – | – | – | – | – | – | – | – | – | – | – | – |
| O=C(Nc1ccc(Cl)cc1Cl)C1C(=O)N(c2ccc(Cl)cc2Cl)C(=O)/C1=N\Nc1ccc([N+](=O)[O-])cc1[N+](=O)[O-] (stereo not given) | > 100 | > 100 | > 100 | > 100 | > 100 | > 100 µM | – | > 100 | – | – | – | – | – | – | – | – | – | – | – | – |
| CC(C)/C=C1\CCC(CN2CCCC2)C1=O (stereo not given) | 24.2 | 20.1 | > 64.2 | > 79.7 | 33.2 | 16.5 µM | 29.7 | > 62.5 | – | – | – | – | – | – | – | – | – | – | – | – |
| O=C(Nc1c(O)[nH]c(=S)[nH]c1=O)c1ccccc1F | > 100 | > 100 | > 100 | > 100 | > 100 | > 100 µM | – | > 100 | – | – | – | – | – | – | – | – | – | – | – | – |
| CC(C)(C)NNC(=O)/C(=C/c1ccc([N+](=O)[O-])cc1)NC(=O)c1ccccc1 | > 100 | > 100 | > 100 | > 100 | > 100 | > 100 µM | > 100 | > 100 | – | – | – | – | – | – | – | – | – | – | – | – |
| Cc1ccc2c(c1)C(C)Cc1c(ncnc1-n1cnc3ccccc31)N2C (stereo not given) | 15.7 | 17.3 | 21 | 12 | 10.2 | 32.7 µM | – | 28.4 | 0.242 | 0.973 | 0.537 | 0.38 | 1.37 | 20.6 | 0.284 | 36.4 | 0.434 | 0.592 | 1.17 µM | – |
| COc1cc(C2c3[nH]c4ccccc4c3C[C@H]3COC(=O)N23)cc(OC)c1OC (stereo not given in full) | 8.97 | > 100 | 3.16 | – | – | 1.71 µM and 0.389 µM | – | > 100 | – | 0.0233 | – | < 0.01 | – | – | < 0.01 | – | < 0.01 | < 0.01 | 0.0655 µM and < 0.01 µM | – |
| CC(NS(=O)(=O)c1ccc([N+](=O)[O-])cc1)C(=O)O (stereo not given) | > 100 | > 100 | > 100 | > 100 | > 100 | > 100 µM | > 100 | > 100 | – | – | – | – | – | – | – | – | – | – | – | – |
| O=C1c2ccccc2-c2c1c1ccccc1c(=O)n2CCCCNCCCn1c2c(c3ccccc3c1=O)C(=O)c1ccccc1-2 | 4.18 | 2.9 | 10.4 | 0.687 | 1.49 | 1.5 µM | 7.08 | – | 0.76 | 0.508 | 0.51 | 0.0484 | 1.34 | 4.15 | 0.245 | 1.05 | 0.529 | 0.256 | – | 0.33 |
| O=C1[C@@H]2C(c3ccccc3Br)=NO[C@@H]2C(=O)N1c1ccc(Cc2ccc(N3C(=O)[C@H]4C(c5ccccc5Br)=NO[C@H]4C3=O)cc2)cc1 | > 100 | > 100 | – | > 100 | > 100 | > 100 µM | > 100 | > 100 | – | – | – | – | – | – | – | – | – | – | – | – |
| CC1CC[C@]2(C(=O)O)CCC3(COC(=O)/C=C\c4ccc(O)cc4)C(=CCC4[C@@]5(C)CC[C@H](O)C(C)(C)C5CC[C@]43C)[C@@H]2[C@H]1C (stereo not given in full) | 37.7 | 26.3 | 32.7 | 35.5 | 40.7 | 46.3 µM | 33.9 | 26.8 | – | – | – | – | – | – | – | – | – | – | – | – |
| CC1CC(C2=CC=CCS2)=Nc2ccccc2S1 (stereo not given) | > 100 | > 100 | > 100 | > 100 | > 100 | > 100 µM | > 100 | > 100 | – | – | – | – | – | – | – | – | – | – | – | – |
| Cc1ccc(NC(=O)c2cc3cc(N=Nc4ccc(Br)cc4)ccc3oc2=O)cc1 | – | > 100 | > 100 | > 100 | > 100 | – | > 100 | – | – | – | – | – | – | – | – | – | – | – | – | – |
| N=C(N)c1ccc(OCc2cccc(COc3ccc(C(=N)N)cc3)c2)cc1 | 7.35 | > 100 | > 100 | 20 | 4.28 | 38.4 µM | – | > 100 | 2.83 | 19.3 | 5.75 | 4.27 | 3.41 | 9.37 | 12.4 | 25.8 | 1.96 | 11.3 | 22.2 µM | – |
| CN1N=CSC12C(=O)N(c1ccc(Cl)cc1)C(=O)N2c1ccc(Cl)cc1 (stereo not given) | > 100 | > 100 | 69.5 | 20.4 | 15.1 | > 100 µM | 36.1 | > 100 | – | – | – | – | – | – | – | – | – | – | – | – |
| COc1cccc2c1C(=O)C=CC2=O | 20.7 | 40.4 | 29.3 | 32.6 | 30.3 | 9.97 µM | 17.7 | 27.2 | – | – | – | – | – | 29.1 | – | – | – | – | – | – |
| CN(Cc1cnc2nc(N)nc(N)c2n1)c1ccc(C(=O)NC(CCC(=O)O)C(=O)O)cc1C(F)(F)F (stereo not given) | > 100 | > 100 | > 100 | > 100 | > 100 | > 66.7 µM | > 100 | > 100 | – | – | – | – | – | – | – | > 100 | – | – | – | – |
| COC(=O)C1=C(c2ccc(OC)c(OC)c2)OC(c2ccc(OC)c(OC)c2)C1 (stereo not given) | > 100 | > 100 | – | > 100 | 34.3 | > 100 µM | 69.9 | > 100 | – | – | – | – | – | – | – | – | – | – | – | – |
| C/C(CN1C(=O)c2ccccc2C1=O)=N\NS(=O)(=O)c1ccc(C)cc1 | > 100 | > 100 | > 100 | > 100 | > 100 | > 100 µM | – | > 100 | – | – | – | – | – | – | – | – | – | – | – | – |
| NC1=NC(=O)/C(=C/c2ccccc2[N+](=O)[O-])C(N)=N1 | > 100 | > 100 | > 100 | > 100 | > 100 | > 100 µM | > 100 | > 100 | – | – | – | – | – | – | – | – | – | – | – | – |
